The record followed here is patent US20160376263A1, “BITTER TASTE MODIFIERS INCLUDING SUBSTITUTED 1-BENZYL-3-(1-(ISOXAZOL-4-YLMETHYL)-1H-PYRAZOL-4-YL)IMIDAZOLIDINE-2,4-DIONES AND COMPOSITIONS THEREOF” (SENOMYX, INC., priority 2016, published 2016).

For orientation: IC50 means the concentration needed to halve the response being measured. As usually defined, the melting point is the temperature, or range, at which the solid turns liquid.

For one data set, the target named is T1, hT2R8 bitter receptor (Homo sapiens, UniProt Q9NYW2).
T1 sequence (Q9NYW2 1-309): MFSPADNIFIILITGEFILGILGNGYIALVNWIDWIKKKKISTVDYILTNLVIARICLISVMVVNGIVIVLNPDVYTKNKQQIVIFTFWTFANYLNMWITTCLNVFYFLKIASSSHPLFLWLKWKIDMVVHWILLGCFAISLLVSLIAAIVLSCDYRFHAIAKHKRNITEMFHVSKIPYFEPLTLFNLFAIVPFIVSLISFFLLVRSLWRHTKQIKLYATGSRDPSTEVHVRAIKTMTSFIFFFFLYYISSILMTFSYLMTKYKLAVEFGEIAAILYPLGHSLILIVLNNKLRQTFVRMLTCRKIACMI
Put plainly: hT2R8 bitter receptor inhibition. It counts as cell-based. Conditions: read-out: IC50, inhibition of hT2R08 bitter receptor.

Take `Cc1noc(C)c1Cn1cc(N2C(=O)N(Cc3cc(O)cc(O)c3)C(C)(C)C2=O)cn1` [Example 105]: the melting point is 213 to 215 °C. Moreover, the concentration for half-maximal inhibition (IC50) on hT2R8 bitter receptor was determined as 10 nM.
